# Data from patent publication US20210355166A1, “[…] METHODS OF USE THEREOF” (priority 2018, published 2021).
# Entries after “also recorded” stand apart in the source; their conditions may differ. Where two headings read alike, the source gives them in different places. Marks after values point to notes of the source that are not given here. Non-standard residues stand in square brackets, D forms with d. No end group written: not given here. *: point of attachment. β‑Lac = OC[C@H]1O[C@@H](O[C@H]2[C@H](O)[C@@H](O)[C@H](*)O[C@@H]2CO)[C@H](O)[C@@H](O)[C@H]1O; Dmt = Cc1cc(O)cc(C)c1C[C@H](N)C(=O)O
# Experiments:
# MOPr [1] = biological target: T1, MOPr (Mus musculus, UniProt P42866); assay type: cell-based; design: expressed in transfected cells; host or cells: AtT20 cells, transient co-transfection
# T1 sequence (P42866 whole entry): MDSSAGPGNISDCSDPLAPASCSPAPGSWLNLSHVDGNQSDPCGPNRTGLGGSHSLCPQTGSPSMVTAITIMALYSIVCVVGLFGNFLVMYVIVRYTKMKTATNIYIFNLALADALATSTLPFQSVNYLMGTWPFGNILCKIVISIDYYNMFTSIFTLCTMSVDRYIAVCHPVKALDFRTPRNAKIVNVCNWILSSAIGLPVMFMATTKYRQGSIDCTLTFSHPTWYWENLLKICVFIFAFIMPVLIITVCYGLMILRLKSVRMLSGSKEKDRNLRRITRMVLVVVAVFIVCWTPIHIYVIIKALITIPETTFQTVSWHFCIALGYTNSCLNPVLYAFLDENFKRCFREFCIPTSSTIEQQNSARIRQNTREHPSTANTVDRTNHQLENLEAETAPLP
# Protocol: Arrestin recruitment: Agonist-induced recruitment of β-arrestin2 to MOPr was examined using a BRET-based approach. AtT20 cells were plated in 10-cm dishes and co-transfected with MOPr C-terminally tagged with Rluc8 (MOPr-RLuc8), β-arrestin2-YFP and GRK2 (1 μg, 4 μg and 2 μg, respectively). 24 h after transfection wells were replated into white opaque 96-well plates (CulturPlate, PerkinElmer) and allowed to adhere overnight. Cells were washed with Hank's Balanced Salt Solution (HBSS) and equilibrated in HBSS for 30 min at 37° C. prior to the experiment. Coelenterazine h was added to a final concentration of 5 μM 10 min before dual fluorescence/luminescence measurement in a LUMIstar Omega plate reader (BMG LabTech). Baseline BRET was measured for 30 sec prior to addition of the indicated ligand. The BRET signal was calculated as the ratio of light emitted at 530 nm by YFP over the light emitted at 430 nm by Renilla luciferase 8 (RLuc8).
# MOPr [2] = biological target: T1, MOPr; test: GIRK conductance in MOPr expressing AtT20 cells without fractional inactivation of MOPr; assay type: cell-based; design: expressed in transfected cells
# Protocol: The recording electrodes were first front filled with this internal solution and then backfilled with the same solution containing 200 μg/ml amphotericin B (in 0.8% DMSO). […] Liquid junction potential was calculated to be +16 mV and was adjusted before the start of each recording. […] Currents were sampled at 100 Hz, low pass filtered at 50 Hz and recorded on hard disk for later analyses. IGIRK was recorded using a 200 ms voltage step to −120 mV from a holding potential of −60 mV delivered every 2 s. Drugs were perfused directly onto cells using a ValveLink 8.2 pressurized pinch valve perfusion system (AutoMate Scientific, USA).
# C57BL/6 mice = test: Nociception (analgesia) testing on 54 C hotplate; assay type: in vivo, mouse; conditions: for analgesic activity after systemic administration: 54° C. hotplate
# Protocol: Experiments were performed under the guidelines of the Australian code of practice for the care and use of animals for scientific purposes (National Health and Medical Research Council, Australia, 7th Edition). Great care was taken to minimise animal suffering during these experiments and to reduce the number of animals used. […] Food and water was available ad libitum. Mice were given at least 7 days to habituate to housing facilities prior to handling, and handled by the experimenter for 4 days prior to testing. […] The experimenter was blind to all drugs tested. Animals were tested on a 54° C. hotplate, with a maximum cut-off time of 20 seconds to prevent tissue damage. Endpoints were hindpaw lick, hindpaw flutter or jump. […] The percentage of maximal possible effects (% MPE) were calculated as follows: % MPE=(test latency−baseline latency)/(cutoff latency−baseline latency)×100%. The cut-off latency was 20 seconds. Significant differences were assessed with a two-way ANOVA and Tukey's post hoc multiple comparisons test. […] Doses were transformed to the logarithm of μmol/kg. A two-way ANOVA was used to compare data at equimolar doses.
# MOPr [3] = biological target: T1, MOPr; assay type: cell-based; design: expressed in transfected cells; conditions: for internalisation signal in GRK2 positive cells: GRK2-YFP and β-arrestin 2-HA overexpressed
# Protocol: (§1) Endocytosis assay: Receptor internalization was quantified using a ratiometric staining of membrane and internalized receptors. […] Cells were then incubated for an additional 30 min with indicated agonist at 37° C. To unbind the M1 anti-FLAG antibody from the surface receptors, cells were quickly washed three times with ice-cold PBS lacking Mg^2+ and Ca^2+ and supplemented with 0.04% EDTA (pH 7.4).
# Only YFP positive cells were analyzed for internalization.
# See also FIGS. 11C and 11D.
# MOPr [4] = biological target: T2, MOPr (Rattus norvegicus, UniProt P33535); test: Patch-clamp recordings of GIRK currents in rat locus coeruleus (LC) neurons; assay type: cell-based
# T2 construct: which natively express MOPr but not DOPr or KOPr; from tissue; host or cells: brain slices with locus coeruleus neurons, male Sprague Dawley rats
# T2 sequence (P33535 whole entry): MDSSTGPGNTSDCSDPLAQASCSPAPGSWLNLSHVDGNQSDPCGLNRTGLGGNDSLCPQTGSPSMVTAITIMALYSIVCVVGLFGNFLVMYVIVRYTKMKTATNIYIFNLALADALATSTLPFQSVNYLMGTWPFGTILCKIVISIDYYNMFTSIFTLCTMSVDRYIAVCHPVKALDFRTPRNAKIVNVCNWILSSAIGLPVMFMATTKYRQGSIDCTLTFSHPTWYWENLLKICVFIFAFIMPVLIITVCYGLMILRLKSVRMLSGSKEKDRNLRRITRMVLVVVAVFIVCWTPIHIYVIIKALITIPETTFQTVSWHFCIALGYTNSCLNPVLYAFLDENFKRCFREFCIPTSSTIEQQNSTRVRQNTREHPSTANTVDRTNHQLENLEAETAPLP
# Protocol: Briefly, rats were anesthetized with isoflurane and decapitated. The brain was dissected and mounted in a vibratome chamber (Leica biosystem, VT100, Wetzlar, Germany) in order to prepare horizontal brain slices (280 μm). […] Slices were incubated in warm oxygenated ACSF for at least 30 min before recording. Slices were transferred to the recording chamber while warm ACSF (34° C.) was superfused at a rate of ˜2 mL/min. Whole-cell voltage-clamp recordings were acquired from LC neurons with Multiclamp 700B amplifier (Molecular Devices, CA, USA) at holding potential of −60 mV. […] Continuous current recordings were collected in chart mode at 500 Hz and filtered at 20-50 Hz using Axograph X (Axograph Scientific, Sydney, Australia). Series resistance monitored throughout the experiments and remained <15 MΩ; otherwise the data were discarded. Outward current was measured as the difference between baseline current and peak current of drug application.
# mouse MOPr (mMOPr) = biological target: T3, mouse MOPr (mMOPr) (Mus musculus, UniProt P42866); assay type: cell-based; conditions: for GIRK (80% knockdown) log(tau/KA): operational model fit
# T3 construct: expressed in transfected cells
# T3 sequence (P42866 whole entry): as the sequence (P42866 whole entry) above
# MOPr [5] = biological target: T1, MOPr; test: MOPr internalisation (endocytosis assay) in AtT20 cells; assay type: cell-based; design: expressed in transfected cells
# Protocol: (§2) Imaging parameters including laser intensity, photomultiplier tube (PMT) voltage and offset remained constant for each experiment. Mean fluorescence intensity was measured using ImageJ software to calculate mean gray value of an area defined […] a single cell. Each experiment was normalized to the mean of untreated cells as 0% and the mean of cells treated with saturating concentrations of Met-enk (30 μM) as 100%.
# as §1, with “MOPr internalisation was assessed immunocytochemically after 30 minutes of agonist treatment (FIGS. 8, 9). […] Endocytosis” for “Endocytosis”
# [6] = biological target: human µ-opioid receptor (hMOPr), human recombinant MOPr expressed in HEK-293 cells (human) (UniProt P35372); test: cell-based or functional assay
# Chain of human µ-opioid receptor (hMOPr), human recombinant MOPr expressed in HEK-293 cells (human) (P35372 whole entry): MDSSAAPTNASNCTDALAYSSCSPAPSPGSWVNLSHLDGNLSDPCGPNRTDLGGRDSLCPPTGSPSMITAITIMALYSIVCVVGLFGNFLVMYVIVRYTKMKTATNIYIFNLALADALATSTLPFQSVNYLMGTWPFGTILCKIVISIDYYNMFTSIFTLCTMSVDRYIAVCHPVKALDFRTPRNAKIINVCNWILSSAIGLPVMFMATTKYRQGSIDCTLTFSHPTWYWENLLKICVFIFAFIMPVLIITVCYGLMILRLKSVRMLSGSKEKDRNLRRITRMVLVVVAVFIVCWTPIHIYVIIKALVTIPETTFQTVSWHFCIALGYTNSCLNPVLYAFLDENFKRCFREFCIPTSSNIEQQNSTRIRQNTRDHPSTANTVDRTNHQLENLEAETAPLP
# MOPr [7] = biological target: T1, MOPr; test: Ser375 phosphorylation assay in AtT20 cells expressing MOPr; assay type: cell-based; design: expressed in transfected cells; conditions: met-enkephalin defined as 100%
# Protocol: Cells were serum starved for at least 30 min and then incubated in the absence or presence of the indicated ligand for 5-10 min at 37° C. Phosphorylation was terminated by fixing the cells with −30° C. methanol followed by 10 min incubation on ice. Cells were washed three times with phosphate buffered saline (PBS) and then heated in sodium citrate buffer (10 mM, 0.05% Tween 20, pH.6) for 20 min at 95° C. […] Imaging was performed as detailed below.
# as §2
# [8] = biological target: MOPr C-terminally tagged with Rluc8 (MOPr-RLuc8), transfected in AtT20 cells; test: cell-based or functional assay
# [9] = biological target: FLAG tagged mouse MOPr (mMOPr) stably expressed in AtT20 cells (mouse) (UniProt P42866); test: cell-based or functional assay
# Chain of FLAG tagged mouse MOPr (mMOPr) stably expressed in AtT20 cells (mouse) (P42866 whole entry): as the sequence (P42866 whole entry) above
# [10] = biological target: T4, human µ-opioid receptor (hMOPr), human recombinant MOPr expressed in HEK-293 cells (human, UniProt P35372 1-400); test: competition with [3H]DAMGO (0.5 nM), membranes with human recombinant MOPr (HEK-293), filtration and scintillation counting
# T4 construct: whole, on cells; the cAMP assay used whole HEK cells expressing hMOPr
# T4 sequence (P35372 whole entry): as the sequence (P35372 whole entry) above
# Protocol: (§3) The specific ligand binding to the receptors is defined as the difference between the total binding and the nonspecific binding determined in the presence of an excess of an unlabelled opioid ligand (naloxone, 10 μM). The results are expressed as a percent of control specific binding ((measured specific binding/control specific binding)×100) obtained in the presence of unlabelled peptides of interest. The IC₅₀ values (concentration causing a half-maximal inhibition of control specific binding) and Hill coefficients (nH) were determined by non-linear regression analysis of the competition curves generated with mean replicate values using Hill equation curve fitting (Y=D+[(A−D)/(1+(C/C₅₀nH)], where Y=specific binding, D=minimum specific binding, A=maximum specific binding, C=compound concentration, C₅₀=IC₅₀, and nH=slope factor).
# [11] = biological target: T4, human µ-opioid receptor (hMOPr), human …; test: competition with [3H]DAMGO at hMOPr
# Protocol: as §3
# [12] = biological target: T4, human µ-opioid receptor (hMOPr), human …; test: cell-based or functional assay
# [13] = biological target: MOPr natively expressed by rat locus coeruleus (LC) neurons (rat, UniProt P33535 1-398); test: cell-based or functional assay
# Chain of MOPr natively expressed by rat locus coeruleus (LC) neurons (P33535 whole entry): as the sequence (P33535 whole entry) above
molecule,measurement,setting,value
"2,6-dimethyl-L-tyrosine-D-Val-L-Val-D-Phe-L-Ser(β-Lac)-NH2 ([Dmt][dV]V[dF]S(β‑Lac)-NH2; N-terminus assumed; SMILES Cc1cc(O)cc(C)c1C[C@H](N)C(=O)N[C@@H](C(=O)N[C@H](C(=O)N[C@H](Cc1ccccc1)C(=O)N[C@@H](CO[C@@H]1O[C@H](CO)[C@@H](O[C@@H]2O[C@H](CO)[C@H](O)[C@H](O)[C@H]2O)[C@H](O)[C@H]1O)C(N)=O)C(C)C)C(C)C) [peptide 3g]",β-arrestin recruitment compared to bilorphin,MOPr [1],modest
same,agonist action in AtT20 cells,MOPr [2],potent partial opioid agonist
same,potency compared with bilorphin in AtT20 cells,MOPr [2],small loss of potency
same,analgesic activity after systemic administration,"C57BL/6 mice; s.c., listed as Bilactorphin",dose-dependent analgesia; also recorded: equipotent with morphine
same,analgesic activity after systemic administration,"C57BL/6 mice; s.c., listed as bilactorphin",potent analgesic
same,peak effect after i.v,"C57BL/6 mice; hotplate, i.v",88.9±11.8 % MPE
same,activity after oral administration,"C57BL/6 mice; hotplate, oral gavage",active
same,"ED50, hotplate, systemic administration s.c.",C57BL/6 mice; s.c.,34 µmol/kg
same,internalization compared to bilorphin,"MOPr [3]; 30 μM, after GRK2 overexpression",modest
"CC(=O)N[C@@H](Cc1ccc(O)cc1)C(=O)N[C@@H](C(=O)N[C@H](C(=O)N[C@H](Cc1ccccc1)C(N)=O)C(C)C)C(C)C [3d, Aε-YvVf-NH2]",activity in LC neurons,MOPr [4]; 10-30 μM,inactive
COc1ccsc1CNCC[C@@]1(c2ccccn2)CCOC2(CCCC2)C1 [oliceridine],GGIRK maximal response / intrinsic efficacy,mouse MOPr (mMOPr),significantly less efficaciously than either morphine or bilorphin
same,GIRK (80% knockdown) Emax,"mouse MOPr (mMOPr); AtT20 mMOPr cells after β-CNA, relative to somatostatin",0.33 ± 0.01
same,GIRK (80% knockdown) log(tau/KA),mouse MOPr (mMOPr),7.2 ± 0.08
same,Internalisation Emax,"MOPr [5]; 30 min agonist, met-enkephalin defined as 100%",No activity
same,internalisation signal in GRK2 positive cells,MOPr [3],clear internalisation signals
"Cc1cc(O)cc(C)c1C[C@H](N)C(=O)N[C@@H](C(=O)N[C@H](C(=O)N[C@H](Cc1ccccc1)C(N)=O)C(C)C)C(C)C [peptide 3c, 2,6-dimethyl-L-tyrosine-D-Val-L-Val-D-Phe-NH2]",agonist action on GIRK current in LC neurons,MOPr [4]; compared with morphine,agonist with potency greater than morphine
same,agonist action in AtT20 cells,MOPr [2],potent partial opioid agonist
same,peak effect after intrathecal injection,"C57BL/6 mice; hotplate, 5 nmol/mouse intrathecal",41±9 % MPE
same,"nociception in the hotplate test, intravenous","C57BL/6 mice; i.v. 50 mg/kg, versus vehicle",failed to inhibit nociception
same,"nociception in the hotplate test, subcutaneous","C57BL/6 mice; s.c. 100 mg/kg, versus vehicle",failed to inhibit nociception
same,internalisation signal in GRK2 positive cells,MOPr [3],clear internalisation signals
"DAMGO ([D-Ala^2, N-MePhe^4, Gly^5-ol]-enkephalin) (peptide)",% inhibition of forskolin-stimulate cAMP formation in hMOPr HEK cells (10 um),[6],94%
H-FVVF-NH2 (peptide),% inhibition of forskolin-stimulate cAMP formation in hMOPr HEK cells (10 um),[6],19%
endomorphin-2,GIRK (80% knockdown) log(tau/KA),mouse MOPr (mMOPr),7.5 ± 0.04
same,β-arrestin 2 recruitment Emax,MOPr [1]; BRET,100 ± 3
same,β-arrestin 2 recruitment log(tau/KA),MOPr [1]; operational model fit,7.0 ± 0.06
same,Internalisation Emax,MOPr [5],94 ± 3%
same,Internalisation log(tau/KA),MOPr [5],6.2 ± 0.05
same,MOPr internalisation,MOPr [5],robust internalisation
same,Phosphorylation Emax,MOPr [7],98 ± 2%
endomorphin-2 (peptide),β-arrestin 2 recruitment (BRET): Emax,[8],100
same,β-arrestin 2 recruitment (BRET): log(EC50),[8],-7
same,β-arrestin 2 recruitment (BRET): log(tau/KA),[8],7
same,GIRK (80% knockdown): Emax,[9],0.64
same,GIRK (80% knockdown): log(EC50),[9],-6.9
same,GIRK (80% knockdown): log(tau/KA),[9],7.5
same,Internalisation of MOPr: Emax,[9],94%
same,Internalisation of MOPr: log(EC50),[9],-6.4
same,Internalisation of MOPr: log(tau/KA),[9],6.2
same,Phosphorylation (Ser375 of MOPr): Emax,[9],98%
same,Phosphorylation (Ser375 of MOPr): log(EC50),[9],-7.2
same,Phosphorylation (Ser375 of MOPr): log(tau/KA),[9],7.2
met-enkephalin,Internalisation Emax,MOPr [5],100* %
same,MOPr internalisation,MOPr [5],robust internalisation
same,Phosphorylation Emax,MOPr [7],100* %
"YVVF (D-Val at 2; D-Phe at 4; C-terminal amide, also called 3b; peptide 3b) [H-YvVf-NH2 (L-Tyr-D-Val-L-Val-D-Phe-NH2)]",Ki,[10],93 nM
same,fold increase of affinity over Bilaid C (3a),[11],2 fold
"FVVF (D-Val at 2; D-Phe at 4; C-terminal amide, also called 1e; peptide 1e) [H-FvVf-NH2 (L-Phe-D-Val-L-Val-D-Phe-NH2)]",Ki,[10],750 nM
same,fold improvement of affinity over Bilaid A (1a),[11],4 fold
same,% inhibition of forskolin-stimulate cAMP formation in hMOPr HEK cells (10 um),[12],47%
H-YVVF-OH [H-YVVF-OH],Agonist potency in LC neurons EC50,[13],> 10000 nM
Ac-Y[dV]V[dF]-NH2 [Ac-YvVf-NH2],Agonist potency in LC neurons EC50,[13],> 10000 nM
H-YVVF-NH2 [H-YVVF-NH2],Agonist potency in LC neurons EC50,[13],> 10000 nM
